Assay [1] concerns mock-transfected HEK293T cells. Kind of assay: Ca2+ imaging of mock-transfected HEK293T cells (control). The format is cell-based, human. As to conditions: single concentration. On the procedure: Mock-transfected HEK293T cells, hTRPV1-expressing HEK293T cells, non-hTRPA1-expressing Flp-In 293 cells, and hTRPA1-expressing Flp-In 293 cells grown in 96-well black-wall plates were rinsed with assay buffer (130 mM NaCl, 10 mM glucose, 5 mM KCl, 2 […]2, 1.2 mM MgCl2, and 10 mM HEPES, pH 7.4) and loaded with 5 μM Fura-2 AM (Invitrogen) for 30 min at 27°C. The cells were washed with assay buffer and treated with ligands. […] The fluorescence intensities of Fura-2 excited at 340 and 380 nm were simultaneously measured at 510 nm using a computer-controlled filter changer (Lambda DG4; Sutter, San Rafael, CA, USA), an Andor Luca CCD camera (Andor Technology, Belfast, UK), and an inverted fluorescence microscope (IX-71; Olympus, Tokyo, Japan). Intracellular calcium images were recorded every 3-s for 60-s and analyzed using MetaFluor software (Molecular Devices, Sunnyvale, CA, USA).

A further assay addresses T1, hTRPA1 (Homo sapiens, UniProt O75762).
T1 construct: expressed in transfected cells
In words: Measurement of Ca2+ influx (Fluo-4 AM, FlexStation III) in hTRPA1-expressing cells. The format is cell-based. The following applies: hTRPA1-expressing Flp-In 293 cells, Hill fit. How it is done:
Flp-In 293 cell lines stably expressing hTRPA1constructed as previously reported was a gift from the professor Takumi Misaka at University of Tokyo. The hTRPA1-expressing cells were cultured in DMEM containing 10% FBS and 0.02% hygromycin B (Invitrogen). Flp-In 293 cell lines were maintained in DMEM containing 10% FBS. All cells were incubated at 37°C in a humidified atmosphere of 5% CO2.
The ligand-induced changes on cytosolic Ca^2+ level were monitored by a FlexStation III microplate reader (Molecular Devices). Fluo-4 AM (5 µM, Molecular Probes, Eugene, OR, USA) in assay buffer was loaded to the cells in 96-well black-wall plates for 30 min at 27°C. After dye treatment, each chemical was added to each well at 17 s and changes on intracellular Ca^2+ level were monitored by relative fluorescence units (ΔRFU, Ex = 485 nm; Em = 516 nm) for 120 s. […] The responses from at least three wells receiving the same stimulus were averaged. Plots of amplitude versus concentration were fitted using the Hill equation.

T1 sequence (O75762 whole entry): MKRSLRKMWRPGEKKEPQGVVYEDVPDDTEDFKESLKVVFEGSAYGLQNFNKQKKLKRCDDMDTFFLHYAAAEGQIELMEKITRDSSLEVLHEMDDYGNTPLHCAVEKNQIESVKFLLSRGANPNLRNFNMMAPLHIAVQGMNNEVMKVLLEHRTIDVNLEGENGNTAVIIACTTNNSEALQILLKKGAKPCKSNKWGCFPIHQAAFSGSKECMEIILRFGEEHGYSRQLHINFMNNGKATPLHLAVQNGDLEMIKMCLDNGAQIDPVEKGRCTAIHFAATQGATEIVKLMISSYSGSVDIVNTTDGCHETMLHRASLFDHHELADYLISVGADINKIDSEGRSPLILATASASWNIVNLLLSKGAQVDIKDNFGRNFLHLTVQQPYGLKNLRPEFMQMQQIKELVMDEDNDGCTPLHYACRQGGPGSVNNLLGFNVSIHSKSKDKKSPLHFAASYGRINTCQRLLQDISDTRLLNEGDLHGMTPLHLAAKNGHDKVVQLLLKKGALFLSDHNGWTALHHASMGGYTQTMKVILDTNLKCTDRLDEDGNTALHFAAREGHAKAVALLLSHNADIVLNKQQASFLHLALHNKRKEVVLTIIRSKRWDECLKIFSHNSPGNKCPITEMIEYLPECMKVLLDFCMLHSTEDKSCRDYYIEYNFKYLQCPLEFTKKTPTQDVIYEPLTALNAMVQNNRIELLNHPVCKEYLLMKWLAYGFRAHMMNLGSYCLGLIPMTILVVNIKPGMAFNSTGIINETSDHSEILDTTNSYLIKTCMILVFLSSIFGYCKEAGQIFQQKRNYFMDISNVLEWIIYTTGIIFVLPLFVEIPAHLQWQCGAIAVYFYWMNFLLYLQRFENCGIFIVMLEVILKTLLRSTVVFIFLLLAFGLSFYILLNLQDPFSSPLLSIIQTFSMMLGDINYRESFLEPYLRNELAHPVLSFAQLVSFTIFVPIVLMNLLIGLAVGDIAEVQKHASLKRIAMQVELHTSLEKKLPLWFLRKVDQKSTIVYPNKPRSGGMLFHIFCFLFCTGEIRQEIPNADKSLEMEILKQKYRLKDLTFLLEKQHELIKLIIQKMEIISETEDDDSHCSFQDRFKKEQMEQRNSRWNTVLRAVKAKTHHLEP

Turning to `CC(C)=CCC/C(C)=C/CNC(=O)C1CC1` [NGCC, N-geranylcyclopropylcarboxamide], the “change in fluorescence in mock-transfected cells” value in assay [1] is “no changes in fluorescence”. For the same compound, a half-maximal response on hTRPA1 (EC50) required 83.7 µM.
